Experimental data reported in PMC10066365, “Nemacol is a small molecule inhibitor of C. elegans vesicular acetylcholine transporter with anthelmintic potential” (Nature Communications, 2023).
Where “and” joins values, the source holds several entries; their conditions need not be identical. Identical values can stand only once. Like-named read-outs stand apart in the source and are kept apart here.

Key:
Haemonchus contortus = Haemonchus contortus L3 Migration Trap Assay (motility, 24 h exposure); conditions: hc weybridge, motilityTrap24hNoWash, 24 h, single wells
[1] = tested on: Dirofilaria immitis microfilariae; assay: Dirofilaria immitis microfilariae immobility assay (DiroImager, 72 h); conditions: Dirofilaria immitis microfilariae
In short: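 Motility read after 72 h drug exposure with an image-based high-throughput plate imager, 1% DMSO medium serving as negative control. Missouri-isolate microfilariae, roughly 250 per well, freshly purified and cultured in supplemented RPMI 1640.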

C. elegans = C. elegans motor phenotype scoring on solid media (Punc/jerky-unc, coiled, paralyzed), wild-type young adults; type: in vivo, Caenorhabditis elegans; conditions: for atypical locomotion (number of animals) / coiled (number of animals) / no phene (number of animals) / paralyzed (number of animals) / any phene: mean % fraction of young adults exhibiting any phenotype (coiled, jerky-Unc or paralyzed) / any phene (mean % fraction of young adults exhibiting any phenotype: coiled, jerky-Unc or paralyzed): one hour; for atypical locomotion (number of animals) / coiled (number of animals) / no phene (number of animals) / paralyzed (number of animals): young adults, 20 animals per trial, single technical replicate; for any phene: mean % fraction of young adults exhibiting any phenotype (coiled, jerky-Unc or paralyzed) / any phene (mean % fraction of young adults exhibiting any phenotype: coiled, jerky-Unc or paralyzed): mean of three biological replicates; for EC50: Caenorhabditis elegans, any motor phenotype after 1 h on solid media, ± 95% CI, read-out: C. elegans - motor disruption EC50
Pristionchus pacificus = Pristionchus pacificus motor disruption dose-response on solid media, 1 h; conditions: for EC50: Pristionchus pacificus, 1 h, read-out: P. pacificus motor disruption EC50; for mean % any phene: any phenotype (coiled, jerky-Unc or paralyzed) at one hour; for mean % any phene / mean % any phene (coiled, jerky-Unc or paralyzed): mean of three biological replicates; for rep 1 atypical locomotion / rep 1 coiled / rep 1 no phene / rep 1 paralyzed / rep 2 atypical locomotion / rep 2 coiled / rep 2 no phene / rep 2 paralyzed / rep 3 atypical locomotion / rep 3 coiled / rep 3 no phene / rep 3 paralyzed: count of 20 animals per trial, one hour; for mean % any phene (coiled, jerky-Unc or paralyzed): Pristionchus pacificus young adults
rat VAChT = target: T1, rat VAChT (Rattus norvegicus, UniProt Q62666); assay: [3H]Vesamicol competitive radioligand binding, PC12 cells expressing ratVAChT
T1 construct: expressed in transfected cells; host or cells: rat PC12 (PC12 A123.7) cells, stably transfected; shared by Dr. Ali Roghani (Texas Tech University)
T1 sequence (Q62666 1-530): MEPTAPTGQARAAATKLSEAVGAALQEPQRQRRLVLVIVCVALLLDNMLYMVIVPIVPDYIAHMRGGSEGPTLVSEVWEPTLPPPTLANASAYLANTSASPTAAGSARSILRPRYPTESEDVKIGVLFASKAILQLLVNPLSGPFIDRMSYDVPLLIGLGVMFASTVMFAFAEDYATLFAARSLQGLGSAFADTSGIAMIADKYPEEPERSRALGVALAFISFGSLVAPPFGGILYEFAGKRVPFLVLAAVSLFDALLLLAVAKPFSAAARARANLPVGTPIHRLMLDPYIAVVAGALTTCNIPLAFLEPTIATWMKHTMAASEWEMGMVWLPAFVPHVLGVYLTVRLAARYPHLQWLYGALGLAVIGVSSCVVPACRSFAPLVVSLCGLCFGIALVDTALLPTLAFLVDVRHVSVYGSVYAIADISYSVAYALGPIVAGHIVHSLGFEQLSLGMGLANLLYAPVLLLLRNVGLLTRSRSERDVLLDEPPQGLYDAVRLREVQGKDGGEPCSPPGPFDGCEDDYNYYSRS

[2] = tested on: Dirofilaria immitis L3/L4; assay: Dirofilaria immitis L3/L4 motility assay (DiroImager, 72 h); conditions: Dirofilaria immitis L4
[3] = [3H]Vesamicol binding, PC12, experiment 1, read-out: expt 1 Ki (M) vs. rat VAChT (PC12)
[4] = [3H]Vesamicol binding, PC12, experiment 2, read-out: expt 2 Ki (M) vs. rat VAChT (PC12)
[5] = [3H]Vesamicol binding, rat VAChT (PC12), mean of 2-3 experiments, read-out: mean Ki

O=[N+]([O-])c1ccc(N2CCN(CC3CCCCC3)CC2)cc1 [Nemacol_1]
efficacy (Haemonchus contortus; dose 0.0195312 µM): 0
efficacy (Haemonchus contortus; dose 0.078125 µM): 0
efficacy (Haemonchus contortus; dose 0.3125 µM): 0
efficacy (Haemonchus contortus; dose 1.25 µM): 0
efficacy (Haemonchus contortus; dose 5 µM): 0

c1ccc(N2CCN(C3CCCCCC3)CC2)cc1 [Nemacol-59]
% effect (motility), DIROIM MF ([1]; 0.016 µM): 0%
% effect (motility), DIROIM MF ([1]; 0.08 µM): 0%
% effect (motility), DIROIM MF ([1]; 0.4 µM): 0%
% effect (motility), DIROIM MF ([1]; 2 µM): 0%
% effect (motility), DIROIM MF ([1]; 10 µM): 0%
atypical locomotion (number of animals) (C. elegans; 3.75uM): 5 and 4 and 7 and 2
coiled (number of animals) (C. elegans; 3.75uM): 0
no phene (number of animals) (C. elegans; 3.75uM): 15 and 16 and 13
paralyzed (number of animals) (C. elegans; 3.75uM): 0 and 2
any phene: mean % fraction of young adults exhibiting any phenotype (coiled, jerky-Unc or paralyzed) (C. elegans; 3.75uM): 24.1667%
atypical locomotion (number of animals) (C. elegans; 15uM): 15 and 17 and 14 and 16 and 18
coiled (number of animals) (C. elegans; 15uM): 0 and 1 and 3 and 2
no phene (number of animals) (C. elegans; 15uM): 0 and 2
paralyzed (number of animals) (C. elegans; 15uM): 5 and 3 and 0
any phene: mean % fraction of young adults exhibiting any phenotype (coiled, jerky-Unc or paralyzed) (C. elegans; 15uM): 98.3333%
atypical locomotion (number of animals) (C. elegans; 60uM): 1 and 4 and 8 and 5 and 3
coiled (number of animals) (C. elegans; 60uM): 12 and 6 and 4 and 7
no phene (number of animals) (C. elegans; 60uM): 0
paralyzed (number of animals) (C. elegans; 60uM): 7 and 10 and 8 and 9 and 11
EC50 (C. elegans): 5100 ± 500 nM
EC50 (Pristionchus pacificus): > 60000 nM
mean % any phene (Pristionchus pacificus; conc 3.75): 0%
rep 1 atypical locomotion (Pristionchus pacificus; conc 3.75): 0
rep 1 coiled (Pristionchus pacificus; conc 3.75): 0
rep 1 no phene (Pristionchus pacificus; conc 3.75): 20
rep 1 paralyzed (Pristionchus pacificus; conc 3.75): 0
rep 2 atypical locomotion (Pristionchus pacificus; conc 3.75): 0
rep 2 coiled (Pristionchus pacificus; conc 3.75): 0
rep 2 no phene (Pristionchus pacificus; conc 3.75): 20
rep 2 paralyzed (Pristionchus pacificus; conc 3.75): 0
rep 3 atypical locomotion (Pristionchus pacificus; conc 3.75): 0
rep 3 coiled (Pristionchus pacificus; conc 3.75): 0
rep 3 no phene (Pristionchus pacificus; conc 3.75): 20
rep 3 paralyzed (Pristionchus pacificus; conc 3.75): 0
mean % any phene (Pristionchus pacificus; conc 15): 0%
rep 1 atypical locomotion (Pristionchus pacificus; conc 15): 0
rep 1 coiled (Pristionchus pacificus; conc 15): 0
rep 1 no phene (Pristionchus pacificus; conc 15): 20
rep 1 paralyzed (Pristionchus pacificus; conc 15): 0
rep 2 atypical locomotion (Pristionchus pacificus; conc 15): 0
rep 2 coiled (Pristionchus pacificus; conc 15): 0
rep 2 no phene (Pristionchus pacificus; conc 15): 20
rep 2 paralyzed (Pristionchus pacificus; conc 15): 0
rep 3 atypical locomotion (Pristionchus pacificus; conc 15): 0
rep 3 coiled (Pristionchus pacificus; conc 15): 0
rep 3 no phene (Pristionchus pacificus; conc 15): 20
rep 3 paralyzed (Pristionchus pacificus; conc 15): 0
mean % any phene (Pristionchus pacificus; conc 60): 5.833%
rep 1 atypical locomotion (Pristionchus pacificus; conc 60): 4 and 2
rep 1 coiled (Pristionchus pacificus; conc 60): 0
rep 1 no phene (Pristionchus pacificus; conc 60): 16 and 18
rep 1 paralyzed (Pristionchus pacificus; conc 60): 0
rep 2 atypical locomotion (Pristionchus pacificus; conc 60): 0
rep 2 no phene (Pristionchus pacificus; conc 60): 19 and 20
rep 2 paralyzed (Pristionchus pacificus; conc 60): 0
rep 3 atypical locomotion (Pristionchus pacificus; conc 60): 0
rep 3 coiled (Pristionchus pacificus; conc 60): 0
rep 3 no phene (Pristionchus pacificus; conc 60): 20
rep 3 paralyzed (Pristionchus pacificus; conc 60): 0
Ki (rat VAChT; [3]): 1.85e-06 M
Ki (rat VAChT; [4]): 1.68e-06 M
Ki (rat VAChT; [5]): 1.76e-06 M
Ki (rat VAChT; [3H]Vesamicol displacement, mean, read-out: ratVAChT Ki): 1.76e-06 M
% effect (motility), DIROIM L4 ([2]; 10 µM): 30%
% effect (motility), DIROIM L4 ([2]; 50 µM): 25%

CC1CCC(N2CCN(c3ccc(F)cc3)CC2)CC1 (centres unmarked) [Nemacol_53]
efficacy (Haemonchus contortus; dose 0.00488281 µM): 0
efficacy (Haemonchus contortus; dose 0.0195312 µM): 0
efficacy (Haemonchus contortus; dose 80 µM): 90.3789 and 92.5148 and 88.1185

Cc1ccc(N2CCN(CC3CC4C=CC3C4)CC2)cc1 (centres unmarked) [Nemacol-43]
% effect (motility), DIROIM MF ([1]; 0.016 µM): 0%
% effect (motility), DIROIM MF ([1]; 0.08 µM): 0%
% effect (motility), DIROIM MF ([1]; 0.4 µM): 0%
% effect (motility), DIROIM MF ([1]; 2 µM): 0%
% effect (motility), DIROIM MF ([1]; 10 µM): 0%
any phene (mean % fraction of young adults exhibiting any phenotype: coiled, jerky-Unc or paralyzed) (C. elegans; 3.75uM, third c14 line of each analog): 33.7698%
any phene (mean % fraction of young adults exhibiting any phenotype: coiled, jerky-Unc or paralyzed) (C. elegans; 15uM, second c14 line of each analog): 100%
any phene (mean % fraction of young adults exhibiting any phenotype: coiled, jerky-Unc or paralyzed) (C. elegans; 60uM, first c14 line of each analog): 100%
EC50 (C. elegans): 3900 nM
mean % any phene (coiled, jerky-Unc or paralyzed) (Pristionchus pacificus; conc 3.75, observed at one hour): 0%
mean % any phene (coiled, jerky-Unc or paralyzed) (Pristionchus pacificus; conc 15, observed at one hour): 20.8333%
mean % any phene (coiled, jerky-Unc or paralyzed) (Pristionchus pacificus; conc 60, observed at one hour): 76.4035%
EC50 (Pristionchus pacificus): 31500 ± 4900 nM
Ki (rat VAChT; [3]): 1.91e-07 M
Ki (rat VAChT; [4]): 1.26e-07 M
Ki (rat VAChT; [5]): 1.59e-07 M
% effect (motility), DIROIM L4 ([2]; 2 µM): 6%
% effect (motility), DIROIM L4 ([2]; 10 µM): 5%
% effect (motility), DIROIM L4 ([2]; 50 µM): 20%

c1ccc(N2CCN(CC3CCCC3)CC2)cc1 [Nemacol_62]
efficacy (Haemonchus contortus; dose 5 µM): 0
efficacy (Haemonchus contortus; dose 20 µM): 0
efficacy (Haemonchus contortus; dose 80 µM): 0
